Experimental findings from publication PMC10777983, “The Optimization of Assay Conditions and Characterization of the Succinic Semialdehyde Dehydrogenase Enzyme of Germinated Tartary Buckwheat” (Foods, 2023) are described below.

By Km is commonly meant the concentration of substrate that gives half-maximal velocity.

The subject of this experiment is T1, SSADH (succinic semialdehyde dehydrogenase) of germinated Tartary buckwheat.
T1 construct: NAD+-dependent (printed EC 1.2.1.79 is the NADP+ class)
The experiment is described as follows: NADH formation at […] nm, Lineweaver-Burk. In kind it is biochemical, Fagopyrum tataricum. The conditions noted are these: 1 mmol/L EDTA, 20 mmol/L beta-mercaptoethanol, 1 mmol/L PMSF, partially purified enzyme.

SMILES strings stand for the structures.

On to `NC(=O)c1ccc[n+]([C@@H]2O[C@H](COP(=O)(O)OP(=O)(O)OC[C@H]3O[C@@H](n4cnc5c(N)ncnc54)[C@H](O)[C@@H]3O)[C@@H](O)[C@H]2O)c1` [NAD^+], for which the Michaelis constant (Km) (0.2 mmol/L SSA fixed, PBS pH 8.6, 30 °C) is 636 µM. `O=CCCC(=O)O` [SSA]: where the note is “2 mmol/L NAD+, 1/15 mol/L PBS pH 8.6 (b78 prints mmol/L), 30 °C”, the Km was about 235 µM.
